Test results reported in paper PMC12735844, “2-(Trihydroxyphenyl)thienopyrimidinones as Key Scaffolds for Targeting a Novel Allosteric Site of HIV-1 Integrase” (Molecules, 2025).
Values joined by “and” are separate entries in the source; they are usually repeats but may differ in a detail not shown here. Identical values can stand only once. Like-named read-outs stand apart in the source and are kept apart here.

Assays:
[1] = target: T1, HIV-1 IN (wild-type) in the presence of LEDGF/p75 (Human immunodeficiency virus type 1 group M subtype B, UniProt P12497); assay: HTRF HIV-1 IN LEDGF/p75-dependent assay (3'-processing and strand transfer), wild-type IN, with or without sucrose; type: biochemical; conditions: for IC50: IC50 IN LEDGF/p75-dependent integration
T1 construct: IN is a 32 kDa multimeric enzyme comprising three domains; His; made in house; host or cells: Escherichia coli BL21 (DE3)
Protocol: (§1) The IN LEDGF/p75-dependent and indepentent assay was performed for the evaluation of 3′-processing and strand-transfer IN reactions inhibition in the presence/absence of recombinant LEDGF/p75 protein, as previously described.
(§2) The same assay in the presence of HIV-1 IN wt, K173A and H185A mutant proteins, was used to evaluate the effect of sucrose in the presence of selected compounds.

[2] = target: T2, HIV-1 IN in the absence of LEDGF/p75 (Human immunodeficiency virus type 1 group M subtype B, UniProt P12497); assay: HTRF HIV-1 IN LEDGF/p75-independent assay; type: biochemical; conditions: mean ± SE, three experiments, read-out: IC50 IN LEDGF/p75-independent integration
T2 construct: His; made in house; host or cells: Escherichia coli BL21 (DE3)
Protocol: as §1

[3] = target: T3, HIV-1 IN/LEDGF/p75 binding (Human immunodeficiency virus type 1 group M subtype B, UniProt P12497); assay: HTRF-based IN-LEDGF/p75 binding assay; conditions: mean ± SE, three experiments
T3 construct: IN is a 32 kDa multimeric enzyme comprising three domains; made in house; host or cells: Escherichia coli BL21 (DE3)
Protocol: The IN-LEDGF/p75 binding was evaluated using a FRET method, in which His-IN was pre-incubated with test compounds in a mix buffer previously described, for 30 min at room temperature. After the addition of FLAG-LEDGF/p75 and a mixture of anti-His6-XL665 and anti-FLAG-EuCryptate antibodies, the reaction was read after 4 h at 4 °C, using 314 nm for excitation wavelength and […] and 620 nm for the wavelength of the acceptor and donor emission, respectively, with a Perkin Elmer Victor 3 plate reader (Perkin Elmer, Waltham, MA, USA), and the HTRF signal calculated by the emission ratio 665 nm/620 nm multiplied by 10.000.

HIV-1 IN multimerization = target: T4, HIV-1 IN multimerization (Human immunodeficiency virus type 1 group M subtype B, UniProt P12497); assay: HTRF-based assay of higher-order, aberrant IN multimerization; type: biochemical; conditions: dash = no induction of higher-order
T4 construct: IN is a 32 kDa multimeric enzyme comprising three domains; made in house; host or cells: Escherichia coli BL21 (DE3)
Protocol: (§3) HIV-1 His and FLAG-tagged INs were mixed in a mix buffer previously described and compounds added to the mixture and incubated for 2.5 h at room temperature. At the end of the time, a mixture of anti-His6-XL665 and anti-FLAG-EuCryptate antibodies were added to the reaction and, after an incubation time of 3 h, the HTRF signal was recorded as described in the previous paragraph.

[4] = target: T5, HIV-1 IN-IN subunit exchange (Human immunodeficiency virus type 1 group M subtype B, UniProt P12497); assay: HTRF-based IN-IN subunit exchange assay; type: biochemical; conditions: for IC50: mean ± SE, three experiments
T5 construct: IN is a 32 kDa multimeric enzyme comprising three domains; made in house; host or cells: Escherichia coli BL21 (DE3)
Protocol: as §3

wt RT RNase H = target: wt RT RNase H; parameters: method as in PMID 33143469; conditions: previously reported quinazolinone; cited from earlier work
[5] = target: T1, HIV-1 IN (wild-type) in the presence of LEDGF/p75; parameters: method as in PMID 37764476, PMID 23631411; conditions: previously reported dihydroxyphenyl-thienopyrimidinones; read-out: IN LEDGF/p75-dependent IC50; cited from earlier work
HIV-1 IN K173A mutant = target: T6, HIV-1 IN K173A mutant (Human immunodeficiency virus type 1 group M subtype B, UniProt P12497, K1320A); assay: HTRF IN LEDGF/p75-dependent assay on K173A mutant, with or without sucrose; type: biochemical; conditions: for Fold of increase of potency, K173A mutant: with sucrose vs alone
T6 construct: IN is a 32 kDa multimeric enzyme comprising three domains; His; made in house; host or cells: Escherichia coli BL21 (DE3)
Protocol: (§4) The commercial QuikChange mutagenesis Kit (Agilent Technologies Inc., Santa Clara, CA, USA) were used to introduce the selected substitutions on HIV-1 IN wt plasmid and the correct presence of alanine in 173 and 185 position were evaluated in the electropherogram provided by Bio-Fab, after the sequencing.
(§5) HIV-1 IN wt, K173A and H185A mutant proteins were expressed in Escherichia coli strain BL21 (DE3) after transformation with a plasmid containing protein gene. Recombinant proteins were then purified using a Ni-Sepharose column and a heparin column and stored as previously described. LEDGF/p75 with 6-his and FLAG tags were purified with a heparin column and a Superdex 200 GL (Merck Sigma Aldrich, Milan, Italy) column previously described.
as §1, §2

HIV-1 IN H185A mutant = target: T7, HIV-1 IN H185A mutant (Human immunodeficiency virus type 1 group M subtype B, UniProt P12497, F1332A); assay: HTRF IN LEDGF/p75-dependent assay on H185A mutant, with or without sucrose; type: biochemical; conditions: for IC50: LEDGF/p75-dependent activity; for Fold of increase of potency, H185A mutant: with sucrose vs alone
T7 construct: IN is a 32 kDa multimeric enzyme comprising three domains; His; made in house; host or cells: Escherichia coli BL21 (DE3)
Protocol: as §4, §5, §1, §2

[6] = tested on: HIV-1RF isolate in CEM-SS cells; assay: Antiviral activity, XTT-based cell viability assay
Protocol: (§6) Antiviral activity of selected thienopyrimidinones was determined via the 2,3-bis[2-methoxy-4-nitro-5-sulfophenyl]-5-[(phenylamino)-carbonyl]-2H tetrazolium hydroxide (XTT)-based cell viability assay, using the HIV-1RF isolate and human T-cell line CEM-SS.

human T-cell line CEM-SS = assay: Cytotoxicity in the XTT-based cell viability assay; conditions: CEM-SS cells
Protocol: as §6

[7] = in the presence of LEDGF/p75, compound alone, mean ± SE, three experiments
[8] = LEDGF/p75-dependent, IC50 alone vs with sucrose
[9] = HIV-1 IN H185A mutant IC50 alone, no sucrose
[10] = HIV-1 IN H185A mutant IC50 with sucrose, in the presence of sucrose

Cc1sc2nc(-c3cc(O)c(O)c(O)c3)[nH]c(=O)c2c1C [Compound 5, 5,6-Dimethyl-2-(3,4,5-trihydroxyphenyl)thieno[2,3-d]pyrimidin-4(3H)-one]
IC50 [1, 7]: 8 ± 2 µM | IC50 [2]: 5.35 ± 0.55 µM

CCCC(C(=O)O)c1c(C)nc2ccc(Cl)cc2c1-c1ccccc1 (centres unmarked) [LEDGIN-6, reference compound]
IC50 [1, 7]: 9 ± 2 µM | IC50 [2]: 10 ± 2 µM | IC50 [3]: 10 ± 0.4 µM | EC50 (HIV-1 IN multimerization; read-out: MI50 IN multimerization): 10 ± 1 µM | IC50 [4]: > 100 µM | percentage in parentheses after >100, IN-IN subunit exchange ([4]; meaning of the bracketed percentage is not defined in the paper): >100 (100%)

OC[C@H]1O[C@@](CO)(O[C@H]2O[C@H](CO)[C@@H](O)[C@H](O)[C@H]2O)[C@@H](O)[C@@H]1O [sucrose, reference compound]
IC50 IN LEDGF/p75-dependent integration [1, 7]: inactive

O=c1[nH]c(-c2ccc(O)c(O)c2)nc2ccc(I)cc12 [Compound 1]
IC50 (wt RT RNase H): 0.11 ± 0.01 µM

Cc1sc2nc(-c3cc(O)ccc3O)[nH]c(=O)c2c1C [Compound 4]
IC50 [5]: 85 ± 6 µM

O=c1[nH]c(-c2cc(O)c(O)cc2O)nc2sc3c(c12)CCC3 [Compound 12, 2-(2,4,5-Ttrihydroxyphenyl)-3,5,6,7-tetrahydro-4H-cyclopenta[4,5]thieno[2,3-d]pyrimidin-4-one]
IC50 [2]: 0.86 ± 0.14 µM | IC50 [3]: 24.7 ± 1.75 µM | MI50 IN multimerization (HIV-1 IN multimerization): none succeeded in inducing multimerization | IC50 [4]: 17.3 ± 1.7 µM

Cc1sc2nc(-c3cc(O)c(O)cc3O)[nH]c(=O)c2c1C [C00002]
IC50 [1, 7]: 0.45 ± 0.09 µM

Cc1sc2nc(-c3ccc(O)c(O)c3O)[nH]c(=O)c2c1C [Compound 8, 5,6-Dimethyl-2-(2,3,4-trihydroxyphenyl)thieno[2,3-d]pyrimidin-4(3H)-one]
IC50 [1, 7]: 11.8 ± 1.85 µM

Cc1sc2nc(-c3cc(O)cc(O)c3)[nH]c(=O)c2c1C [Compound 2]
IC50 [5]: 3.7 ± 0.73 µM

Cc1sc2nc(-c3c(O)cc(O)cc3O)[nH]c(=O)c2c1C [Compound 7, 5,6-Dimethyl-2-(2,4,6-trihydroxyphenyl)thieno[2,3-d]pyrimidin-4(3H)-one]
IC50 [1, 7]: 6.1 ± 1.6 µM

O=c1[nH]c(-c2cc(O)cc(O)c2)nc2sc3c(c12)CCCCC3 [Compound 3]
IC50 [5]: 3.37 ± 0.48 µM

Cc1sc2nc(-c3cc(O)c(O)cc3O)[nH]c(=O)c2c1C [Compound 6, 5,6-Dimethyl-2-(2,4,5-trihydroxyphenyl)thieno[2,3-d]pyrimidin-4(3H)-one]
reduction in activity by sucrose (times) [1, 8]: approximately 10 | IC50 [2]: 0.76 ± 0.01 µM | IC50 [3]: 75 ± 12 µM | MI50 IN multimerization (HIV-1 IN multimerization): none succeeded in inducing multimerization | IC50 [4]: 5.45 ± 0.05 µM | IC50 (HIV-1 IN K173A mutant): 6.5 ± 1.7 µM | Fold of increase of potency, K173A mutant (HIV-1 IN K173A mutant): 32.5 | IC50 (HIV-1 IN H185A mutant; [9]): 4.64 ± 0.7 µM | IC50 (HIV-1 IN H185A mutant; [10]): 0.48 ± 0.08 µM | Fold of increase of potency, H185A mutant (HIV-1 IN H185A mutant): 9.7 | effect on viral replication [6]: not able to inhibit viral replication | cytotoxicity (human T-cell line CEM-SS): devoid of cytotoxicity

O=c1[nH]c(-c2cc(O)c(O)c(O)c2)nc2sc3c(c12)CCCCC3 [Compound 10, 2-(3,4,5-Trihydroxyphenyl)-3,5,6,7,8,9-hexahydro-4H-cyclohepta[4,5]thieno[2,3-d]pyrimidin-4-one]
IC50 [1, 7]: 0.31 µM and 0.315 µM | increase of inhibitory capacity by sucrose (times) [1, 8]: ~16 | IC50 [2]: 3.6 ± 0.39 µM | IC50 [3]: 6.16 ± 0.98 µM | MI50 IN multimerization (HIV-1 IN multimerization): none succeeded in inducing multimerization | IC50 [4]: 2.05 ± 0.35 µM | IC50 (HIV-1 IN K173A mutant): 3.3 ± 0.86 µM | Fold of increase of potency, K173A mutant (HIV-1 IN K173A mutant): 13.2 | IC50 (HIV-1 IN H185A mutant; [9]): 2.27 ± 0.43 µM | IC50 (HIV-1 IN H185A mutant; [10]): 0.61 ± 0.022 µM | Fold of increase of potency, H185A mutant (HIV-1 IN H185A mutant): 3.7 | effect on viral replication [6]: not able to inhibit viral replication | cytotoxicity (human T-cell line CEM-SS): devoid of cytotoxicity

O=c1[nH]c(-c2cc(O)c(O)c(O)c2)nc2sc3c(c12)CCC3 [C00009]
IC50 [1, 7]: 0.87 ± 0.045 µM

O=c1[nH]c(-c2cc(O)c(O)cc2O)nc2sc3c(c12)CCC3 [C00008]
IC50 [1, 7]: 1.96 ± 0.125 µM

O=c1[nH]c(-c2c(O)cc(O)cc2O)nc2sc3c(c12)CCCCC3 [C00007]
IC50 [1, 7]: 5.2 ± 1.2 µM

O=c1[nH]c(-c2cc(O)c(O)c(O)c2)nc2sc3c(c12)CCCCC3 [C00006]
IC50 [1, 7]: 0.31 ± 0.035 µM

O=c1[nH]c(-c2cc(O)c(O)cc2O)nc2sc3c(c12)CCCCC3 [Compound 9, 2-(2,4,5-Trihydroxyphenyl)-3,5,6,7,8,9-hexahydro-4H-cyclohepta[4,5]thieno[2,3-d]pyrimidin-4-one]
IC50 [1, 7]: 0.965 ± 0.035 µM | IC50 [2]: 0.99 ± 0.09 µM | IC50 [3]: > 100 µM | IC50 IN/LEDGF/p75 binding [3]: inactive | MI50 IN multimerization (HIV-1 IN multimerization): none succeeded in inducing multimerization | IC50 [4]: 6.35 ± 1.35 µM

O=c1[nH]c(-c2cc(O)c(O)c(O)c2)nc2sc3c(c12)CCC3 [Compound 13, 2-(3,4,5-Trihydroxyphenyl)-3,5,6,7-tetrahydro-4H-cyclopenta[4,5]thieno[2,3-d]pyrimidin-4-one]
IC50 [2]: 1.12 ± 0.22 µM
